In the Kinase Knowledgebase extract (Sharma et al. 2016):

biological target: MAPK14 (human) (UniProt Q16539); test: Inhibition of MAPK14 Kinase Activity
Sequence (Q16539 whole entry, looked up): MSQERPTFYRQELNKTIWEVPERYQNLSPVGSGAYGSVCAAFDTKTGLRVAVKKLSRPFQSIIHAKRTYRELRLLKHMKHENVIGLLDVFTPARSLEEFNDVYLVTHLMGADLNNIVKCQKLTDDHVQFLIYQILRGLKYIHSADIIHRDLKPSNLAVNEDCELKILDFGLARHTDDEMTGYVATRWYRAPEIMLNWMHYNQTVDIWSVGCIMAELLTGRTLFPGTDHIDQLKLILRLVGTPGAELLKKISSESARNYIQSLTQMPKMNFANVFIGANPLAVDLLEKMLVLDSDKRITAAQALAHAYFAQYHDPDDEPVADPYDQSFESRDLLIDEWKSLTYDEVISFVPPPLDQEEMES

Row | Structure (SMILES) | IC50 [µM]
1 | COc1ccc(OC2CCC(=O)N(c3c(Cl)cncc3Cl)C2)cc1 (configuration not stated) | ≤ 10
2 | Cc1ccccc1OC1CCC(=O)N(c2c(Cl)cccc2Cl)C1 (configuration not stated) | ≤ 10
3 | CC(C)(C)OC(=O)N1CCC(Nc2cc(Cl)c(N3CC(Cc4ccc(F)cc4F)CCC3=O)c(Cl)c2)CC1 (configuration not stated) | ≤ 10
4 | O=C1CCC(Cc2ccc(F)cc2F)CN1c1c(Cl)cc(C#CCO)cc1Cl (configuration not stated) | ≤ 10
5 | O=C1CCC(Sc2cc(F)cc(F)c2)CN1c1c(Cl)csc1Cl (configuration not stated) | ≤ 10
6 | CN(C)c1cc(Cl)c(N2CC(Cc3ccc(F)cc3F)CCC2=O)c(Cl)c1 (configuration not stated) | ≤ 10
7 | CC(=O)Nc1cc(Cl)c(N2CC(Oc3ccc(F)cc3F)CCC2=O)c(Cl)n1 (configuration not stated) | ≤ 10
8 | COC(=O)/C=C/c1cc(C)c(N2CC(Cc3ccc(F)cc3F)CCC2=O)c(C)c1 (configuration not stated) | ≤ 10
9 | O=C1COC(Cc2ccc(F)cc2F)CN1c1c(Cl)ccc(O)c1Cl (configuration not stated) | ≤ 10
10 | O=C1SCC(Cc2ccccc2)CN1c1c(Cl)cccc1Cl (configuration not stated) | ≤ 10
11 | O=C1CCC(Oc2ccc(F)cc2F)CN1C1C(Cl)CCCC1Cl (configuration not stated) | ≤ 10
12 | COc1ccc(CC2CNC(=O)N(c3c(Cl)cccc3Cl)C2)cc1 (configuration not stated) | ≤ 10
13 | CN(C)CCCCc1cc(Cl)c(N2CC(Cc3ccc(F)cc3F)CCC2=O)c(Cl)c1 (configuration not stated) | ≤ 10
14 | O=C1NCC(Cc2ccccc2F)CN1c1c(Cl)cccc1Cl (configuration not stated) | ≤ 10
15 | O=C1CCC(Cc2ccc(F)cc2F)CN1C1C(Cl)CCCC1Cl (configuration not stated) | ≤ 10
16 | O=C1CCC(Cc2cc(F)cc(F)c2)CN1c1c(Cl)csc1Cl (configuration not stated) | ≤ 10
17 | Cc1ccc(CC2CCC(=O)N(c3c(Cl)csc3Cl)C2)c(C)c1 (configuration not stated) | ≤ 10
18 | Cc1cc(C(=O)NCCCN(C)C)cc(C)c1N1CC(Cc2ccc(F)cc2F)CCC1=O (configuration not stated) | ≤ 10
19 | Cc1ccccc1CC1CCC(=O)N(C2C(Cl)CCCC2Cl)C1 (configuration not stated) | ≤ 10
20 | O=C1[C@@H](O)C[C@@H](Cc2ccc(F)cc2F)CN1c1c(Cl)cccc1Cl | ≤ 10
21 | O=C1CCC(Cc2ccc(F)cc2F)CN1c1c(Cl)ccnc1Cl (configuration not stated) | ≤ 10
22 | CC(C)(C)OC(=O)Nc1cc(Cl)c(N2CC(Cc3ccccc3F)CCC2=O)c(Cl)c1 (configuration not stated) | ≤ 10
23 | NCCCc1cc(Cl)c(N2CC(Cc3ccc(F)cc3F)CCC2=O)c(Cl)c1 (configuration not stated) | ≤ 10
24 | O=C1CCC(Sc2ccccc2F)CN1c1c(Cl)ccnc1Cl (configuration not stated) | ≤ 10
25 | O=C1CCC(Sc2ccccc2Cl)CN1c1c(Cl)cncc1Cl (configuration not stated) | ≤ 10

Row | Structure (SMILES) | IC50 [µM]
26 | O=C(Cc1ccccc1)Nc1cc(Cl)c(N2CC(Sc3ccc(F)cc3F)CCC2=O)c(Cl)n1 (configuration not stated) | ≤ 10
27 | O=C1COC(Cc2ccccc2)CN1c1c(Cl)cccc1Cl (configuration not stated) | ≤ 10
28 | O=C1CCC(Oc2ccccc2F)CN1c1c(Cl)cccc1Cl (configuration not stated) | ≤ 10
29 | O=C1COC(Cc2ccc(F)cc2F)CN1c1c(Cl)cccc1Cl (configuration not stated) | ≤ 10
30 | O=C1CCC(CO)(Cc2ccc(F)cc2F)CN1c1c(Cl)cccc1Cl (configuration not stated) | ≤ 10
31 | O=C(Cc1ccccc1)Nc1sc(Cl)c(N2CC(Cc3ccc(F)cc3F)CCC2=O)c1Cl (configuration not stated) | ≤ 10
32 | O=C1CCC(Cc2cc(F)cc(F)c2)CN1C1C(Cl)CCCC1Cl (configuration not stated) | ≤ 10
33 | O=C1CCC(Sc2ccccc2)CN1c1c(Cl)csc1Cl (configuration not stated) | ≤ 10
34 | COc1ccc(CC2CCC(=O)N(c3c(Cl)cccc3Cl)C2)cc1 (configuration not stated) | ≤ 10
35 | CC(O)(c1ccc(F)cc1F)C1CCC(=O)N(c2c(Cl)cccc2Cl)C1 (configuration not stated) | ≤ 10
36 | CC(=O)Nc1ncc(Cl)c(N2CC(Cc3ccc(F)cc3F)CCC2=O)c1Cl (configuration not stated) | ≤ 10
37 | CC(=O)Nc1ccc(Cl)c(N2CC(Cc3ccc(F)cc3F)CCC2=O)c1 (configuration not stated) | ≤ 10
38 | O=C1CCC(Oc2ccc(F)cc2F)CN1c1c(Cl)sc(O)c1Cl (configuration not stated) | ≤ 10
39 | O=C1CCC(Oc2cc(F)cc(F)c2)CN1c1c(Cl)cncc1Cl (configuration not stated) | ≤ 10
40 | O=C1CCC(Cc2ccc(Cl)cc2)CN1c1c(Cl)csc1Cl (configuration not stated) | ≤ 10
41 | O=C1CCC(Oc2ccc(F)cc2F)CN1c1c(Cl)ccc(O)c1Cl (configuration not stated) | ≤ 10
42 | CC(C)(C)OC(=O)N(CCO)c1cc(Cl)c(N2CC(Cc3ccc(F)cc3F)CCC2=O)c(Cl)c1 (configuration not stated) | ≤ 10
43 | CC(=O)Nc1cc(Cl)c(N2CC(Cc3ccc(F)cc3F)CN(C)C2=O)c(Cl)c1 (configuration not stated) | ≤ 10
44 | CNc1cc(Cl)c(N2CC(Cc3ccc(F)cc3F)CNC2=O)c(Cl)c1 (configuration not stated) | ≤ 10
45 | Cc1cc(C)cc(CC2COC(=O)N(c3c(Cl)cccc3Cl)C2)c1 (configuration not stated) | ≤ 10
46 | O=C1CCC(Oc2ccc(F)cc2F)CN1C1C(Cl)CCC(O)C1Cl (configuration not stated) | ≤ 10
47 | NC1CC(Cl)C(N2CC(Sc3ccc(F)cc3F)CCC2=O)C(Cl)C1 (configuration not stated) | ≤ 10
48 | O=C1CSC(Cc2ccc(Cl)cc2Cl)CN1c1c(Cl)cccc1Cl (configuration not stated) | ≤ 10
49 | CN1CC(Cc2ccccc2F)CN(c2c(Cl)cccc2Cl)C1=O (configuration not stated) | ≤ 10
50 | CNC1CCC(Cl)C(N2CC(Oc3ccc(F)cc3F)CCC2=O)C1Cl (configuration not stated) | ≤ 10

Row | Structure (SMILES) | IC50 [µM]
51 | O=C1OCC(Cc2ccc(F)cc2F)CN1c1c(Cl)cc(CO)cc1Cl (configuration not stated) | ≤ 10
52 | O=C1NCC(Cc2ccccc2Cl)CN1c1c(Cl)cccc1Cl (configuration not stated) | ≤ 10
53 | O=C1CCC(Sc2ccccc2F)CN1c1c(Cl)cncc1Cl (configuration not stated) | ≤ 10
54 | O=C1SCC(Cc2cc(F)cc(F)c2)CN1c1c(Cl)cccc1Cl (configuration not stated) | ≤ 10
55 | O=C1OCC(Cc2ccc(F)cc2F)CN1c1c(Cl)cccc1Cl (configuration not stated) | ≤ 10
56 | CC(=O)Nc1cc(Cl)c(N2CC(Cc3ccc(F)cc3F)CSC2=O)c(Cl)c1 (configuration not stated) | ≤ 10
57 | O=C(Cc1ccccc1)Nc1ncc(Cl)c(N2CC(Sc3ccc(F)cc3F)CCC2=O)c1Cl (configuration not stated) | ≤ 10
58 | CNc1ncc(Cl)c(N2CC(Cc3ccc(F)cc3F)CCC2=O)c1Cl (configuration not stated) | ≤ 10
59 | Cc1ccc(OC2CCC(=O)N(c3c(Cl)ccnc3Cl)C2)cc1 (configuration not stated) | ≤ 10
60 | CNc1cc(Cl)c(N2CC(Cc3ccc(F)cc3F)CCC2=O)c(Cl)n1 (configuration not stated) | ≤ 10
61 | CC(=O)N(C)c1cc(Cl)c(N2CC(Cc3ccc(F)cc3F)CCC2=O)c(Cl)c1 (configuration not stated) | ≤ 10
62 | Cc1cccc(C)c1N1CC(Cc2ccccc2OCC(=O)Nc2cc(C(C)(C)C)nn2C)CCC1=O (configuration not stated) | ≤ 10
63 | COc1ccccc1CC1CCC(=O)N(c2c(Cl)ccnc2Cl)C1 (configuration not stated) | ≤ 10
64 | NC1CC(Cl)C(N2CC(Cc3ccc(F)cc3F)CCC2=O)C(Cl)C1 (configuration not stated) | ≤ 10
65 | Cc1ccc(CC2CN(C)C(=O)N(c3c(Cl)cccc3Cl)C2)cc1 (configuration not stated) | ≤ 10
66 | O=C(Cc1ccccc1)Nc1cnc(Cl)c(N2CC(Sc3ccc(F)cc3F)CCC2=O)c1Cl (configuration not stated) | ≤ 10
67 | Nc1sc(Cl)c(N2CC(Oc3ccc(F)cc3F)CCC2=O)c1Cl (configuration not stated) | ≤ 10
68 | O=C1CCC(Sc2cc(F)cc(F)c2)CN1C1C(Cl)CCCC1Cl (configuration not stated) | ≤ 10
69 | O=C1CCC(Cc2ccc(F)cc2F)CN1c1c(Cl)cncc1Cl (configuration not stated) | ≤ 10
70 | COc1ccccc1OC1CCC(=O)N(c2c(Cl)cccc2Cl)C1 (configuration not stated) | ≤ 10
71 | Cc1cc(CCCCC=O)cc(C)c1N1CC(Cc2ccc(F)cc2F)CCC1=O (configuration not stated) | ≤ 10
72 | O=C1CCC(Oc2ccc(F)cc2F)CN1C1C(Cl)CC(CO)CC1Cl (configuration not stated) | ≤ 10
73 | O=C1CCC(Oc2ccccc2)CN1c1c(Cl)ccnc1Cl (configuration not stated) | ≤ 10
74 | Cc1cc(C#CCCO)cc(C)c1N1CC(Cc2ccc(F)cc2F)CCC1=O (configuration not stated) | ≤ 10
75 | O=C1CCC(Cc2ccc(F)cc2F)CN1c1c(Cl)ncc(O)c1Cl (configuration not stated) | ≤ 10

Results, then the molecule that gave them:

Row | IC50 [µM] | Structure (SMILES)
76 | ≤ 10 | O=C(O)CNc1cc(Cl)c(N2CC(Cc3ccc(F)cc3F)CCC2=O)c(Cl)c1 (configuration not stated)
77 | ≤ 10 | O=C1CCC(Cc2ccccc2F)CN1C1C(Cl)CCCC1Cl (configuration not stated)
78 | ≤ 10 | O=C1CCC(C(=NO)c2ccc(F)cc2F)CN1c1c(Cl)cccc1Cl (configuration not stated)
79 | ≤ 10 | Cc1cccc(C)c1N1CC(Cc2ccccc2OCC(=O)O)CCC1=O (configuration not stated)
80 | ≤ 10 | Cc1cc(C#CCCOC2CCCCO2)cc(C)c1N1CC(Cc2ccc(F)cc2F)CCC1=O (configuration not stated)
81 | ≤ 10 | C[C@@H]1C[C@@H](Cc2ccc(F)cc2F)CN(c2c(Cl)cccc2Cl)C1=O
82 | ≤ 10 | C[C@@H]1C[C@H](Cc2ccc(F)cc2F)CN(c2c(Cl)cc(N)cc2Cl)C1=O
83 | ≤ 10 | CC(=O)Nc1cc(Cl)c(N2CC(Cc3ccc(F)cc3F)COC2=O)c(Cl)c1 (configuration not stated)
84 | ≤ 10 | O=C1CCC(Oc2ccc(F)cc2F)CN1C1C(Cl)CCC(CO)C1Cl (configuration not stated)
85 | ≤ 10 | CN1CC(Cc2ccc(F)cc2F)CN(c2c(Cl)ccc(CO)c2Cl)C1=O (configuration not stated)
86 | ≤ 10 | Cc1ccc(OC2CCC(=O)N(c3c(Cl)ccnc3Cl)C2)c(C)c1 (configuration not stated)
87 | ≤ 10 | COc1ccccc1CC1CSC(=O)N(c2c(Cl)cccc2Cl)C1 (configuration not stated)
88 | ≤ 10 | O=C1OCC(Cc2ccccc2)CN1c1c(Cl)cccc1Cl (configuration not stated)
89 | ≤ 10 | O=C1CCC(Oc2ccc3ccccc3c2)CN1c1c(Cl)csc1Cl (configuration not stated)
90 | ≤ 10 | Cc1ccc(SC2CCC(=O)N(c3c(Cl)cccc3Cl)C2)cc1 (configuration not stated)
91 | ≤ 10 | O=C1CCC(Cc2ccc(Cl)cc2)CN1c1c(Cl)cccc1Cl (configuration not stated)
92 | ≤ 10 | O=C(Cc1ccccc1)Nc1cc(Cl)c(N2CC(Cc3ccc(F)cc3F)CNC2=O)c(Cl)c1 (configuration not stated)
93 | ≤ 10 | O=C1CCC(Oc2ccc(F)cc2)CN1c1c(Cl)cncc1Cl (configuration not stated)
94 | ≤ 10 | CCOC(=O)CN(C(=O)OC(C)(C)C)c1cc(Cl)c(N2CC(Cc3ccc(F)cc3F)CCC2=O)c(Cl)c1 (configuration not stated)

Row | IC50 [µM] | Structure (SMILES)
95 | ≤ 10 | O=Cc1ccccc1CC1CCC(=O)N(c2c(Cl)cccc2Cl)C1 (configuration not stated)
96 | ≤ 10 | Cc1ccccc1CC1COC(=O)N(c2c(Cl)cccc2Cl)C1 (configuration not stated)
97 | ≤ 10 | O=C1CCC(Sc2cc(Cl)cc(Cl)c2)CN1C1C(Cl)CCCC1Cl (configuration not stated)
98 | ≤ 10 | O=C1CCC(Oc2ccccc2)CN1c1c(Cl)cccc1Cl (configuration not stated)
99 | ≤ 10 | O=C1CCC(Oc2ccc(F)cc2)CN1c1c(Cl)ccnc1Cl (configuration not stated)
100 | ≤ 10 | O=C(Cc1ccccc1)Nc1sc(Cl)c(N2CC(Oc3ccc(F)cc3F)CCC2=O)c1Cl (configuration not stated)
101 | ≤ 10 | O=C1CCC(Sc2ccc(F)cc2F)CN1c1c(Cl)ccnc1Cl (configuration not stated)
102 | ≤ 10 | O=C1CCC(Cc2ccc(F)cc2F)(Cc2ccc(F)cc2F)CN1c1c(Cl)cccc1Cl
103 | ≤ 10 | Cc1ccc(SC2CCC(=O)N(C3C(Cl)CCCC3Cl)C2)cc1 (configuration not stated)
104 | ≤ 10 | Cc1ccccc1CC1CNC(=O)N(c2c(Cl)cccc2Cl)C1 (configuration not stated)
105 | ≤ 10 | O=C1CCC(Sc2ccc(F)cc2F)CN1c1c(Cl)cc(O)cc1Cl (configuration not stated)
106 | ≤ 10 | Cc1ccc(CC2CCC(=O)N(c3c(Cl)cncc3Cl)C2)cc1 (configuration not stated)
107 | ≤ 10 | O=C1CCC(Cc2ccc(Cl)cc2Cl)CN1C1C(Cl)CCCC1Cl (configuration not stated)
108 | ≤ 10 | CC(=O)Nc1cnc(Cl)c(N2CC(Oc3ccc(F)cc3F)CCC2=O)c1Cl (configuration not stated)
109 | ≤ 10 | CC(=O)Nc1cc(Cl)c(N2CC(Cc3ccc(F)cc3F)CCC2=O)c(Cl)c1 (configuration not stated)
110 | ≤ 10 | CN(C)CCNc1cc(Cl)c(N2CC(Cc3ccccc3F)CCC2=O)c(Cl)c1 (configuration not stated)
111 | ≤ 10 | CC(C)(C)OC(=O)N(CCNC(N)=O)c1cc(Cl)c(N2CC(Cc3ccc(F)cc3F)CCC2=O)c(Cl)c1 (configuration not stated)
112 | ≤ 10 | O=C(Cc1ccccc1)Nc1ncc(Cl)c(N2CC(Oc3ccc(F)cc3F)CCC2=O)c1Cl (configuration not stated)
